Entries after “also recorded” stand apart in the source; their conditions may differ. Where two headings read alike, the source gives them in different places.
Columns and labels:
HaCaT cells = test: MTT assay on HaCaT cells; format: cell-based; conditions: Homo sapiens, 72 h
Description: HaCaT (human, adult, low calcium, high temperature, skin keratinocyte) cell suspension was adjusted to 5×10^3 cells per well and seeded in 96-well plates, then incubated at 37° C. with 5% CO2. After 24 h, 10 mM stock solutions of N1-N13 in autoclaved milli-Q water were prepared and serially diluted concentrations were added to the wells. Each concentration was performed in 6-replicates, and seeded wells with only media and no compound were used as controls while wells with only media were used as blanks. The plate was incubated for 72 h, after which 100 μL of MTT reagent was added and the plate was further incubated for 3 h before adding 100 μL of DMSO. Subsequently, the plate was shaken for 20 min, and then absorbance at 570 nm was determined using a Bio-Tek plate reader.

THP-1 cells = test: h-CLAT assay on THP-1 cells: markers against OECD cut-off, prediction, cell viability; format: cell-based, human; conditions: for CD54 and CD86 marker expression against OECD cut-off: 8 doses based on CV75, 24 h
Description: The assay was conducted as per the literature (Toxicol In Vitro, 2006, 20, 767-73). THP-1 cells were cultured in 24-well plates (1×10^6 cells/1 mL/well) with various concentrations of each chemical (N1-N13), +ve control (DNCB), −ve control for 24 h.
THP-1 cells were cultured in 24-well plates (1×10^6 cells/mL/well) and treated with recommended concentrations of each chemical (N1-N13), positive control (DNCB) or negative control (SLS) for 24 h. THP-1 cells were cultured and treated with 8 doses of N1-N13 based on the CV75 namely, 1.2×CV75, 1×CV75, 1/1.2×CV75, 1/1.2^2×CV75, 1/1.23×CV75, 1/1.24×CV75, 1/1.2^5×CV75 and 1/1.2^6×CV75. After 24 h, cells were transferred to 1.5 mL of microtubes and centrifuged at 450 g, 5 min, 4° C. Supernatant was discarded and cells were washed with 1 mL of FACS buffer (PBS+FBS+HEPES). The cells were centrifuged at 450 g, 5 min, 4° C. 50 μL of Fc block (0.01% of Globlins Cohn fraction II, III) was added and incubated for 10 min at 4° C. The cells were stained with 20 μL APC CD54 (Mouse IgG1, K, BD Biosciences, San Diego, CA, USA), 20 μL FITC CD86 (Mouse IgG1, K, BD Biosciences, San Diego, CA, USA) or their respective isotype controls and incubated for 15 min at room temperature in dark. After incubation, the antibodies were diluted with 200 μl FACS buffer. The cells were washed with 1 mL FACS buffer twice. Further, 200 μL Propidium iodide (PI, 0.625 μg/mL) prepared in FACS buffer was added before the flow cytometry analysis. Flow cytometric analysis was performed with BD LSR Fortessa™ (Becton Dickinson, San Jose, CA, USA) In total, 10,000 living cells were analysed, and data were processed using Flowjo software (v10.6, Ashland, OR, USA). The test concentration providing a cell viability of 75% (CV75) was derived from the dose response curve and was calculated by log-linear interpolation.
Geometric mean fluorescence intensity (MFI) was measured for CD54^+ and CD86^+ cells separately and percentage relative fluorescence intensity (% RFI), reflective of CD86 and CD54 relative expression was calculated as described below. RFI was not calculated if cell viability fell below 50%.
All chemicals were tested in three independent experiments. If in two of three independent experiments at any dose exceeded 150% RFI for CD86, or 200% RFI for CD54, the chemicals could be identified as a sensitizer. Otherwise it is identified as a non-sensitizer.

IL-8 = IL-8 release assay (ELISA) in THP-1 cells; format: cell-based, human; conditions: CV75 dose, 24 h
Description: (§1) CV75 values (concentration showing 75% of THP-1 cell survival) were determined as per the procedure described above in section A of this method. The IL-8 and IL-1α release assay was performed as described in Toxicol In Vitro. 2003, 17(3), 311-321. A Chemokine immunosorbent assay Bio-legend ELISA Max kit was used to quantify the levels of available IL-8 and IL-1α protein. The supernatant media of untreated THP-1 cells was treated with standards, test samples N1-N13 and DMSO in 96 well plate and then was recovered after 24 h of culture. IL-8 and IL-1α was measured by ELISA in 96-well microtiter plates according to the manufacturer protocol (Biolegend, ELISA MAX™, Singapore).

[1] = system: cysteine heptapeptide (Ac-RFAACAA-COOH) and lysine heptapeptide (Ac-RFAAKAA-COOH); test: Direct Peptide Reactivity Assay (DPRA); format: biochemical; conditions: from mean peptide depletion
Description: The assay was conducted on N1-N13 in triplicates with the respective solvent used to prepare compound stock solutions as control. A stock concentration of 20 mM was prepared instead of the recommended 100 mM by OECD due to scarcity of compounds. The various constituents of the incubation mixture were freshly prepared to prevent stability issues that could cause variations in results. An incubation mixture with the recommended peptide to test compound ratios of 1:10 for cysteine heptapeptide and 1:50 for lysine heptapeptide (OECD. Test No. 442C: In Chemico Skin Sensitisation 2020) was prepared then incubated at 25° C. for 24 h in a shaking incubator (Toxicol Sci. 2012; 129(2):421-31).
At 24 h, the incubation mixture was quenched with 75 μL of 95% ACN/H2O containing 200 μM Leucine Enkephalin (Internal Standard). For cysteine DPRA, 100 μL of quenched mixture was spiked into 90 μL of 2% ACN/H2O and 10 μL of freshly prepared 0.016 mM 1,4-Dithiothreitol (DTT) solution. DTT maintains the integrity of thiol groups by preventing the dimerization of thiol groups and degradation of di-adducts to mono-adducts. This second mixture was then incubated at 40° C. for 30 min in a shaking incubator. For lysine DPRA, 10 μL of quenched mixture was spiked into 190 μL of 2% ACN/H2O. All 200 μL of mixtures were transferred into a 96-well plate and sent for analysis with Liquid Chromatography-Tandem Mass Spectrometry (LC-MS/MS).

IL-1α = IL-1α release assay (ELISA) in THP-1 cells; format: cell-based, human; conditions: 24 h; for release of IL-1α: CV75 dose
Description: as §1

[2] = HaCaT cells, MTT, read-out: IC50

SMILES | IC50 (HaCaT cells; [2]) [µM] | CD54 and CD86 marker expression against OECD cut-off (THP-1 cells) | release of IL-8 (IL-8) | release of IL-1α (IL-1α) | other results
Nc1ccc(N)c(OCOCO)c1 [Compound N8, ((2,5-diaminophenoxy)methoxy)methanol] | 219 | failed to induce marker expression above the recommended % RFI cut-off | – | – | –
CCOCOc1cc(N)ccc1N [Compound N3, 2-(ethoxymethoxy)benzene-1,4-diamine] | 457 | – | – | – | marker induction, times lower than DNCB (THP-1 cells): 3
COCOc1cc(N)ccc1N [Compound N2, 2-(methoxymethoxy)benzene-1,4-diamine] | 297 | – | – | – | marker induction, times lower than DNCB (THP-1 cells): 3
COCCOc1cc(N)ccc1N [Compound N7, 2-(2-methoxyethoxy)benzene-1,4-diamine] | 33.5 | failed to induce marker expression above the recommended % RFI cut-off | slight elevation; also recorded: marginal release | slight elevation; also recorded: marginal release | sensitizing potential (DPRA) [1]: moderate sensitization
Nc1ccc(N)c(OCC2CO2)c1 (stereo not shown) [Compound N4, 2-(oxiran-2-ylmethoxy)benzene-1,4-diamine] | – | did not express the markers at any tested dose level | – | slight release | IC50 (HaCaT cells; HaCaT): 578 µM; IL-1α release, times lower than PPD (IL-1α): 7-8
CCC(=O)COc1cc(N)ccc1N [Compound N11, 1-(2,5-diaminophenoxy)butan-2-one] | 196 | did not express the markers at any tested dose level | – | – | sensitizing potential (DPRA) [1]: moderate sensitizers
CC(O)COc1cc(N)ccc1N (stereo not shown) [Compound N10, 1-(2,5-diaminophenoxy)propan-2-ol] | 283 | did not express the markers at any tested dose level | – | – | –
Nc1ccc(N)c(OCCO)c1 [Compound N9, 2-(2,5-diaminophenoxy)ethan-1-ol] | 272 | failed to induce marker expression above the recommended % RFI cut-off | – | – | –
C=C(C)Oc1cc(N)ccc1N [Compound N12, 2-(prop-1-en-2-yloxy)benzene-1,4-diamine] | 127 | failed to induce marker expression above the recommended % RFI cut-off | slight elevation; also recorded: marginal release | slight elevation; also recorded: marginal release | –
N#CCOc1cc(N)ccc1N [Compound N6, 2-(2,5-diaminophenoxy)acetonitrile] | – | – | did not release significant amounts | did not release significant amounts | IC50 (HaCaT cells; HaCaT): > 1000 µM; marker induction, times lower than DNCB (THP-1 cells; human, 24 h): 3
COCCOCCOc1cc(N)ccc1N [Compound N5, 2-[2-(2-methoxyethoxy)ethoxy]benzene-1,4-diamine] | 43.3 | failed to induce marker expression above the recommended % RFI cut-off | slight elevation; also recorded: marginal release | slight elevation; also recorded: marginal release | –
CNCCOc1cc(N)ccc1N [Compound N13, 2-(2-(methylamino)ethoxy)benzene-1,4-diamine] | 120 | – | slight elevation; also recorded: marginal release | slight elevation; also recorded: marginal release | sensitizing potential (DPRA) [1]: moderate sensitizers
COC(COc1cc(N)ccc1N)OC [Compound N1, 2-(2,2-dimethoxyethoxy)benzene-1,4-diamine] | 508 | did not express the markers at any tested dose level | – | – | –
